Several values for one entry are separate records, joined by “and”; a condition that tells them apart may be missing. Equal values may be shown once.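 A five-concentration, 48-hour dose response in 96-well plates underlies each endpoint, interpolated linearly between surrounding concentrations. At the GI50, growth is halved. TGI is the concentration that stops growth completely.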
Each compound was assayed on MOLT-4 leukemia (assay: inhibition of tumour cell growth, NCI panel, 48 h).

`COc1cccc(Nc2nc(-c3cccs3)nc3cc(OC)c(OC)cc23)c1` and `Nc1nc(-c2ccccc2)nc2oc(-c3cccs3)nc12` cannot be ordered by TGI: greater than 100 µM for the first, greater than 100 µM for the second.

First: Nn1c(Nc2ccc(S(=O)(=O)Nc3ncccn3)cc2)nnc(/C=C/c2c(O)ccc3ccccc23)c1=O
Second: COc1ccc(-n2c(C)nc3ccc(NC(=S)Nc4ccccc4)cc3c2=O)cc1
The TGI of the first is higher: greater than 100 µM for the first, 99.8 µM for the second.

Compared with `Cc1cc(Nc2ccc(S(=O)(=O)O)c3cc(S(=O)(=O)O)cc(S(=O)(=O)O)c23)c2ccccc2n1`, `Cc1ccccc1OC(C)C(=O)NN1C(=O)CSC1c1ccccc1` (stereo unspecified) is lower in TGI: greater than 100 µM for the first, 25.3 µM for the second.

First: COC(=O)[C@@H](O)[C@](O)(CCC(C)C)C(=O)O[C@@H]1C(OC)=C[C@]23CCCN2CCc2cc4c(cc2[C@H]13)OCO4
Second: COc1ccc2cc1Oc1ccc(cc1)C[C@H]1c3cc(c(OC)cc3CCN1C)Oc1c(O)c(OC)cc3c1[C@H](C2)N(C)CC3
The TGI of the first is 3.8-fold lower: 6.97 µM for the first, 26.4 µM for the second.

Compared with `CC1(C)O[C@H]2OC(CO[Si](C)(C)C(C)(C)C)C(N=[N+]=[N-])[C@H]2O1` (stereo partly specified), `CCC(=O)NC(Nc1cc(C)on1)(C(F)(F)F)C(F)(F)F` is higher in TGI: 33.9 µM for the first, greater than 100 µM for the second.

`Oc1ccc(Cc2cc(Cc3ccc(O)cc3)cc(Cc3ccc(O)cc3)c2)cc1` and `O=C(OCc1ccccc1)N1CCNCCN(C(=O)OCc2ccccc2)CCNCC1` cannot be ordered by TGI: greater than 50 µM for the first, 50.4 µM for the second.

`Nc1ncnc2c1[nH]c(=O)n2-c1ccccc1` and `O=c1[nH]c(=S)[nH]c2c1C(c1ccc([N+](=O)[O-])cc1)c1c([nH]c(=S)[nH]c1=O)O2` cannot be ordered by TGI: greater than 100 µM for the first, greater than 100 µM for the second.

First: N[C@@H](CCC(=O)NCP(=O)(O)O)C(=O)O
Second: Cn1c(=O)c2c(nc3n2CC(C(=O)O)N3)n(C)c1=O (stereo unspecified)
The TGI of the first is higher: greater than 100 µM for the first, 0.242 µM for the second.

For `COc1ccc2[nH]cc(/C=C(/C)c3ccncc3)c2c1`, the GI50 was 2.68 µM.

In the case of `COc1ccc2[nH]cc(/C=C(/C)c3ccncc3)c2c1`, the TGI was 47.9 µM and > 100 µM.
In the case of `O=C1C=C[C@@H](COC2OC(CO)C(O)C(O)C2O)O1` (stereo partly specified), the TGI was 21.1 µM and 48.6 µM.

The compounds below were run on MALME-3M melanoma (assay: inhibition of tumour cell growth, NCI panel, 48 h).

`COc1cccc(Nc2nc(-c3cccs3)nc3cc(OC)c(OC)cc23)c1` and `COc1ccc(-n2c(C)nc3ccc(NC(=S)Nc4ccccc4)cc3c2=O)cc1` cannot be ordered by TGI: greater than 100 µM for the first, greater than 100 µM for the second.

Going from `Nn1c(Nc2ccc(S(=O)(=O)Nc3ncccn3)cc2)nnc(/C=C/c2c(O)ccc3ccccc23)c1=O` to `Cc1cc(Nc2ccc(S(=O)(=O)O)c3cc(S(=O)(=O)O)cc(S(=O)(=O)O)c23)c2ccccc2n1`, the TGI rises from 75.8 µM to greater than 100 µM.

First: COc1ccc2[nH]cc(/C=C(/C)c3ccncc3)c2c1
Second: Cc1ccccc1OC(C)C(=O)NN1C(=O)CSC1c1ccccc1 (stereo unspecified)
The TGI of the first is lower: 21.9 µM for the first, greater than 100 µM for the second.

Compared with `COC(=O)[C@@H](O)[C@](O)(CCC(C)C)C(=O)O[C@@H]1C(OC)=C[C@]23CCCN2CCc2cc4c(cc2[C@H]13)OCO4`, `COc1ccc2cc1Oc1ccc(cc1)C[C@H]1c3cc(c(OC)cc3CCN1C)Oc1c(O)c(OC)cc3c1[C@H](C2)N(C)CC3` is 27-fold higher in TGI: 1.94 µM for the first, 52.5 µM for the second.

`CC1(C)O[C@H]2OC(CO[Si](C)(C)C(C)(C)C)C(N=[N+]=[N-])[C@H]2O1` (stereo partly specified) and `O=C1C=C[C@@H](COC2OC(CO)C(O)C(O)C2O)O1` (stereo partly specified) are within 1.5-fold of each other in TGI: 31.7 µM for the first, 31.9 µM for the second.

`Oc1ccc(Cc2cc(Cc3ccc(O)cc3)cc(Cc3ccc(O)cc3)c2)cc1` and `Nc1ncnc2c1[nH]c(=O)n2-c1ccccc1` cannot be ordered by TGI: greater than 50 µM for the first, greater than 100 µM for the second.

`N[C@@H](CCC(=O)NCP(=O)(O)O)C(=O)O` and `Cn1c(=O)c2c(nc3n2CC(C(=O)O)N3)n(C)c1=O` (stereo unspecified) cannot be ordered by TGI: greater than 100 µM for the first, greater than 100 µM for the second.

In the case of `CCC(=O)NC(Nc1cc(C)on1)(C(F)(F)F)C(F)(F)F`, the TGI was greater than 100 µM.

In order of falling GI50:
1. O=C1C=C[C@@H](COC2OC(CO)C(O)C(O)C2O)O1 (stereo partly specified)  12.5 µM
2. COc1ccc2[nH]cc(/C=C(/C)c3ccncc3)c2c1  3.14 µM

The compounds below were run on CCRF-CEM leukemia (assay: inhibition of tumour cell growth, NCI panel, 48 h).

Going from `Nn1c(Nc2ccc(S(=O)(=O)Nc3ncccn3)cc2)nnc(/C=C/c2c(O)ccc3ccccc23)c1=O` to `COc1ccc2[nH]cc(/C=C(/C)c3ccncc3)c2c1`, the TGI rises from 47.9 µM to greater than 100 µM.

`COC(=O)[C@@H](O)[C@](O)(CCC(C)C)C(=O)O[C@@H]1C(OC)=C[C@]23CCCN2CCc2cc4c(cc2[C@H]13)OCO4` and `COc1ccc2cc1Oc1ccc(cc1)C[C@H]1c3cc(c(OC)cc3CCN1C)Oc1c(O)c(OC)cc3c1[C@H](C2)N(C)CC3` cannot be ordered by TGI: greater than 27 µM for the first, 83.8 µM for the second.

Compound `CC1(C)O[C@H]2OC(CO[Si](C)(C)C(C)(C)C)C(N=[N+]=[N-])[C@H]2O1` (stereo partly specified) has a TGI of 38.3 µM.

— PubChem BioAssay (NCI)
